In ChEMBL document CHEMBL5120836, “Discovery of novel 7,8-dihydropteridine-6(5H)-one-based DNA-PK inhibitors as potential anticancer agents via scaffold hopping strategy” (Eur J Med Chem, 2022):

Assays:
HL-60 [1] = test: Synergistic antiproliferative activity against human HL-60 cells assessed as combination index at 1 uM in presence of 0.1 uM doxorubicin by MTT assay; format: functional
HL-60 [2] = test: Synergistic antiproliferative activity against human HL-60 cells assessed as combination index at 25 uM in presence of 0.1 uM doxorubicin by MTT assay; format: functional
MDA-MB-231 = test: Synergistic antiproliferative activity against human MDA-MB-231 cells assessed as combination index at 12.5 uM in presence of 0.1 uM doxorubicin by MTT assay; format: functional
HepG2 = test: Synergistic antiproliferative activity against Doxorubicin-resistant human HepG2 cells assessed as combination index at 50 uM in presence of 0.1 uM doxorubicin by MTT assay; format: functional
[3] = Lipophilicity, logP of the compound; format: physicochemical; conditions: octanol/water

logP [3]: 1.28
Structure (SMILES): Cc1cc2ncnn2cc1Nc1ncc2c(n1)N(C1CCOCC1)CC(=O)N2C
CI (HL-60 [1]): 0.00616 | CI (HL-60 [2]): 0.1382 | CI (MDA-MB-231): 0.474 | CI (HepG2): 0.09496
